Laboratory results published in patent US20100292217A1, “RANOLAZINE FOR THE TREATMENT OF CNS DISORDERS” (Gilead Palo Alto, Inc., priority 2009, published 2010).
Where two headings read alike, the source gives them in different places.

How the values were obtained:
[1] = Brain penetration in rats after continuous intravenous infusion (LC-MS/MS); type: in vivo, Sprague Dawley rats; conditions: for concentration at 1 h / concentration at 2.5 h / concentration at 5 h: 85.5 μg/kg/min
Experimental: Jugular vein cannulated male Sprague Dawley rats (250-350 g, Charles River Laboratories, Hollister, Calif.) were used to study brain penetration of ranolazine in vivo. Animal use was approved by the Institutional Animal Care and Use Committee, Gilead Sciences. Three rats per group were infused intravenously with ranolazine in saline at 85.5 μg/kg/min. After 1, 2.5 or 5 h animals were sacrificed for plasma and brain collection, and ranolazine concentrations were measured by liquid chromatography coupled with tandem mass spectrometry (LC-MS/MS). Brain tissue was homogenated in 1% 2N HCl acidified 5% sodium fluoride (final homogenate was diluted 3-fold). Plasma and brain homogenate samples (50 μl) were precipitated along with deuterated D3-ranolazine as an internal standard, vortexed and centrifuged. The supernatant (50 μL) was transferred and diluted with water (450 μl) prior to injection (10 μl). High performance liquid chromatography was performed using a Shimadzu LC-10AD liquid chromatograph and a Luna C18(2), 3 μm, 20×2.0 mm column with a mobile phase consisting of water containing 0.1% formic acid (solution A) and acetonitrile (solution B) carried out under isocratic conditions (75% solution A, 25% solution B; flow rate 0.300 ml/min). Mass spectrometric analyses were performed using an API3000 mass spectrometer (Applied Biosystems, Foster City, Calif.) operating in positive ion mode with MRM transition 428.1>98. Brain-to-plasma ranolazine ratios were calculated for each sample as ng ranolazine/g brain divided by ng ranolazine/ml plasma.

[2] = tested on: Nav1.4; conditions: inverse sodium gradient, Wang et al. 2008; cited from earlier work
[3] = target: T1, Nav1.1 R1648H (Homo sapiens, UniProt P35498, R1648H); assay: Whole-cell voltage-clamp of mutant Nav1.1 R1648H (GEFS+); type: cell-based
T1 construct: expressed in transfected cells; host or cells: tsA201 cells (named for WT; same transient transfection method for mutants)

[4] = target: cardiac voltage-gated potassium channel HERG (Homo sapiens, UniProt Q12809); conditions: accounts for mild QT interval prolongation in some subjects; cited from earlier work
[5] = target: T2, WT-Nav1.2 (Homo sapiens, UniProt Q99250); assay: Whole-cell voltage-clamp of WT-Nav1.2 stably transfected in CHO cells; type: cell-based; conditions: Example 2; methods in present tense, no data given
T2 construct: expressed in transfected cells

[6] = tested on: Nav1.1 mutant channels (R1648H, T875M, R1648C, F1661S, L263V, Q1489K); assay: Whole-cell voltage-clamp of panel of Nav1.1 mutant channels (GEFS+, SMEI, FHM3); type: cell-based, Human
[7] = Sicouri 2008; Chaitman 2006; cited from earlier work
[8] = target: T3, WT-Nav1.1 (Homo sapiens, UniProt P35498); assay: Whole-cell voltage-clamp of WT-Nav1.1 expressed heterologously in tsA201 cells; type: cell-based
T3 construct: expressed in transfected cells; host or cells: tsA201 cells, transient transfection

[9] = usual clinical dosages; minority with mild dizziness, nausea, headache, constipation; cited from earlier work
[10] = 3 μM ranolazine, pulse trains 10-135 Hz
[11] = pulse 300 of 10 Hz train, read-out: Use-Dependent Block of Peak Current IC50
[12] = read-out: Tonic Block of Peak Current IC50
[13] = read-out: Tonic Block of Persistent Current IC50
[14] = summary statement, persistent current evoked by SCN1A mutations, channel not specified

T2 sequence (Q99250 whole entry): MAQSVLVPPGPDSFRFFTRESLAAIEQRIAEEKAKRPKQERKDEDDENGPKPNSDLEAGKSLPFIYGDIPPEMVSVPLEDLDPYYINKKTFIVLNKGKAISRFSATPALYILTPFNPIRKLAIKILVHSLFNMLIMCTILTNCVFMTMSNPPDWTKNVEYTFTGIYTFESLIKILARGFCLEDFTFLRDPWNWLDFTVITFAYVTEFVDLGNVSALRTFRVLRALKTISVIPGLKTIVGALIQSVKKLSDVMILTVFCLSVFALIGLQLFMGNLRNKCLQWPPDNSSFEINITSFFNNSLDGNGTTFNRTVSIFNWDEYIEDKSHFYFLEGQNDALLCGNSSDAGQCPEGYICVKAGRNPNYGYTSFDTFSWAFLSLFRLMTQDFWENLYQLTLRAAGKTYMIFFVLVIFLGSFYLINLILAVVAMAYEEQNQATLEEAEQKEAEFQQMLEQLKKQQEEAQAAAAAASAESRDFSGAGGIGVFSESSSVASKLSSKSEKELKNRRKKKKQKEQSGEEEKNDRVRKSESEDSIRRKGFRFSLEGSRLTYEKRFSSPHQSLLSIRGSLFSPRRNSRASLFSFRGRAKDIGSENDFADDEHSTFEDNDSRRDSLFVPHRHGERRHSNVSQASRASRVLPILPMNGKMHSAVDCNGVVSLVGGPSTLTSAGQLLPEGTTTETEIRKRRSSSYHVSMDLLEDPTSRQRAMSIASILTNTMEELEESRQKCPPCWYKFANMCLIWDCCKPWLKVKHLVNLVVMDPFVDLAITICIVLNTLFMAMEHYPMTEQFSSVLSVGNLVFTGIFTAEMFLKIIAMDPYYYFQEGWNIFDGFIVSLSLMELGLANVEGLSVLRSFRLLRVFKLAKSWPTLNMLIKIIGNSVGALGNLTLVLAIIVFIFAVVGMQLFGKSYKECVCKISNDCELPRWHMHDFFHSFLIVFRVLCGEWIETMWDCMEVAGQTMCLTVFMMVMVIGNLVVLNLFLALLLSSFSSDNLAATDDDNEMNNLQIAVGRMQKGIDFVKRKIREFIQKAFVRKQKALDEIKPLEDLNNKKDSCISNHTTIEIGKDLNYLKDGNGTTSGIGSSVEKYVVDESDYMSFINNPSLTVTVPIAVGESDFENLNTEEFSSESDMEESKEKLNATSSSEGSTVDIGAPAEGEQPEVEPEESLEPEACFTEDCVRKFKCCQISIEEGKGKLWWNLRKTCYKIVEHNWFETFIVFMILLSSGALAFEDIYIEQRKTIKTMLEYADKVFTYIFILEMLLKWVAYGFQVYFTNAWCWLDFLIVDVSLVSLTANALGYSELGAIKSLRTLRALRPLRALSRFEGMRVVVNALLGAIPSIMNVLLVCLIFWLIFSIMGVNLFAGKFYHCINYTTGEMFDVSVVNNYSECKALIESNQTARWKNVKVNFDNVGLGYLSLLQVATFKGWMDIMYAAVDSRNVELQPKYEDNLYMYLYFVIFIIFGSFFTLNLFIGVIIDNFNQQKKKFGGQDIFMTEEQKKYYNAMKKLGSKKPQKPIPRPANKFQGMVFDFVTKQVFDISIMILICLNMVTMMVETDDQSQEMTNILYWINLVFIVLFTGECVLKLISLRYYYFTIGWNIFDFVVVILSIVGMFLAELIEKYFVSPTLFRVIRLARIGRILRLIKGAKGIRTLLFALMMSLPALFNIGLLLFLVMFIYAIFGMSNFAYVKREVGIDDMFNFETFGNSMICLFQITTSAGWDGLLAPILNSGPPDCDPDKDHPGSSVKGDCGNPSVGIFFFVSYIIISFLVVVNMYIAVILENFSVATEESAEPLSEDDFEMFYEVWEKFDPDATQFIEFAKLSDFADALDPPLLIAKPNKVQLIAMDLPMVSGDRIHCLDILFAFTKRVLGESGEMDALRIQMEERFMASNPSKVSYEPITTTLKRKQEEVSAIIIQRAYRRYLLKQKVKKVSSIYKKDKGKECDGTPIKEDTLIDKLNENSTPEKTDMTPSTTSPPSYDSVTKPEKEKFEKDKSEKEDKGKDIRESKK
cardiac voltage-gated potassium channel HERG, sequence (Q12809 whole entry): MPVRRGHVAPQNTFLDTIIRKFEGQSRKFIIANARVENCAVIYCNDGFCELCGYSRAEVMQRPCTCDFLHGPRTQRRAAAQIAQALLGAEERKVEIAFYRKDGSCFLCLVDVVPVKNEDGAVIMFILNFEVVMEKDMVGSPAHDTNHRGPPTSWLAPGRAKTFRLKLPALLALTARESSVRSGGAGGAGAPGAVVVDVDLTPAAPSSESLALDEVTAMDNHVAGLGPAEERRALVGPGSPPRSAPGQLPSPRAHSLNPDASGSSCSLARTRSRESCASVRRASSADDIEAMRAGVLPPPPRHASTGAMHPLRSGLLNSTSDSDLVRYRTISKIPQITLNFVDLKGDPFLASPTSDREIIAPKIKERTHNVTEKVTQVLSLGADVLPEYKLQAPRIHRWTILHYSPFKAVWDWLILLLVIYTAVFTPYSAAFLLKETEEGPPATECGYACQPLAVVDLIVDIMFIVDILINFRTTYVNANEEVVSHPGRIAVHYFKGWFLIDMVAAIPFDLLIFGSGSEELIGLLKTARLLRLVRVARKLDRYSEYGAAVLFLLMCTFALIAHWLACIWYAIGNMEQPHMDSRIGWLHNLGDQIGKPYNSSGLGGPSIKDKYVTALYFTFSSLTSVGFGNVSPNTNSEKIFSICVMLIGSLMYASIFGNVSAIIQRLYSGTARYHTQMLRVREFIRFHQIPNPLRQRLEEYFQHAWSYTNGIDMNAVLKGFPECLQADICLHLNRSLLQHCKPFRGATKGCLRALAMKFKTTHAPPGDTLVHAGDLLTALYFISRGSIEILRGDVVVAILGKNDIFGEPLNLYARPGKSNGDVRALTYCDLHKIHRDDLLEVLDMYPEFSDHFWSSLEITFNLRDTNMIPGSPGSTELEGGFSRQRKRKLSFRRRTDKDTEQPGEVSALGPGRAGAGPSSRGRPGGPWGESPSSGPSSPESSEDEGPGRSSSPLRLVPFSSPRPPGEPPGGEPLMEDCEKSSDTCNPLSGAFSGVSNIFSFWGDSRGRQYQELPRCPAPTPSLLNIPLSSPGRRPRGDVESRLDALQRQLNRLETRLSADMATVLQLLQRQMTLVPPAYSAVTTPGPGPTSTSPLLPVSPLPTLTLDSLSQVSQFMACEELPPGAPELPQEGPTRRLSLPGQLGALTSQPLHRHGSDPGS

Feasible brain concentration ([1]; extrapolated from therapeutic plasma concentration 2-10 μM): up to 3.3 μM | Kp at 1 h ([1]; male, Sprague Dawley, brain, iv, rat, i.v. infusion 85.5 μg/kg/min, 1 h, read-out: Brain/Plasma): 0.38 | Kp at 2.5 h ([1]; male, Sprague Dawley, brain, iv, rat, i.v. infusion 85.5 μg/kg/min, 2.5 h, read-out: Brain/Plasma): 0.38 | Kp at 5 h ([1]; male, Sprague Dawley, brain, iv, rat, i.v. infusion 85.5 μg/kg/min, 5 h, read-out: Brain/Plasma): 0.3 | concentration at 1 h ([1]; male, Sprague Dawley, rat, brain, iv, Brain (molar), rat, i.v. infusion 85.5 μg/kg/min, 1 h, heading: Brain): 700 nM | concentration at 2.5 h ([1]; male, Sprague Dawley, rat, brain, iv, Brain (molar), rat, i.v. infusion 85.5 μg/kg/min, 2.5 h, heading: Brain): 1040 nM | concentration at 1 h ([1]; male, Sprague Dawley, rat, brain, iv, rat, i.v. infusion 85.5 μg/kg/min, 1 h, read-out: Brain): 298 ± 88.6 ng/g | concentration at 2.5 h ([1]; male, Sprague Dawley, rat, brain, iv, rat, i.v. infusion 85.5 μg/kg/min, 2.5 h, read-out: Brain): 446 ± 302 ng/g | concentration at 5 h ([1]; male, Sprague Dawley, rat, brain, iv, rat, i.v. infusion 85.5 μg/kg/min, 5 h, read-out: Brain): 470 ± 300 ng/g | concentration at 1 h ([1]; male, Sprague Dawley, rat, plasma, iv, rat, i.v. infusion 85.5 μg/kg/min, 1 h, read-out: Plasma): 777 ± 255 ng/mL | concentration at 2.5 h ([1]; male, Sprague Dawley, rat, plasma, iv, rat, i.v. infusion 85.5 μg/kg/min, 2.5 h, read-out: Plasma): 1180 ± 456 ng/mL | concentration at 5 h ([1]; male, Sprague Dawley, rat, plasma, iv, rat, i.v. infusion 85.5 μg/kg/min, 5 h, heading: Plasma, read-out: Plasma): 3720 nM | concentration at 5 h ([1]; male, Sprague Dawley, rat, plasma, iv, rat, i.v. infusion 85.5 μg/kg/min, 5 h, read-out: Plasma): 1590 ± 488 ng/mL | Brain penetration ([1]; rat, all time points (1, 2.5, 5 h)): significant brain penetration | Brain ([1]; rat, i.v. infusion 85.5 μg/kg/min, 5 h): 470 ng/g | Mean brain levels as fraction of corresponding plasma levels ([1]; rat, throughout the time course 1-5 h): approximately one third | Potency at inhibiting persistent current compared to use-dependent block of peak current [3]: 4.6 fold | Selectivity for tonic block of persistent current over peak current [3]: approximately 16 fold | Tonic Block of Peak Current k (Hill slope) [3]: −1.00 ± 0.19 | Tonic Block of Persistent Current k (Hill slope) [3]: −1.00 ± 0.09 | Effect on persistent current ([3]; 30 μM ranolazine): substantially reduced | Tonic block of peak current ([3]; 30 μM ranolazine): minimal tonic block | Use-Dependent Block of Peak Current k (Hill slope) ([3]; 10 Hz train): −0.88 ± 0.03 | IC50 [3, 11]: 138 µM | IC50 [3, 12]: 490 µM | IC50 [3, 13]: 30.2 µM | Inhibition of WT-Nav1.2 [5]: has the ability to inhibit WT-Nav1.2 | Potency at inhibiting persistent current compared to use-dependent block of peak current [8]: 3.6 fold | Selectivity for tonic block of persistent current over peak current [8]: approximately 16 fold | Tonic Block of Peak Current k (Hill slope) [8]: −0.84 ± 0.15 | Tonic Block of Persistent Current k (Hill slope) [8]: −0.83 ± 0.06 | Effect on peak current density ([8]; 30 μM ranolazine): no significant effect | Shift of voltage-dependence of activation or inactivation ([8]; 30 μM ranolazine): did not significantly shift | Tonic block of peak current ([8]; 30 μM ranolazine): minimal | Inactivation k (slope factor) ([8]; 30 μM ranolazine, fast inactivation): −8.0 ± 0.5 mV | Inactivation V1/2 ([8]; 30 μM ranolazine, fast inactivation, 100 ms prepulses): −64.2 ± 0.8 mV | Activation V1/2 ([8]; 30 μM ranolazine, n=10): −21.6 ± 0.8 mV | Activation k (slope factor) ([8]; 30 μM ranolazine, n=10): 8.0 ± 0.2 mV | Use-Dependent Block of Peak Current k (Hill slope) ([8]; 10 Hz train): −0.84 ± 0.05 | IC50 [8, 11]: 195 µM | IC50 [8, 12]: 871 µM | IC50 [8, 13]: 53.7 µM
Compound: COc1ccccc1OCC(O)CN1CCN(CC(=O)Nc2c(C)cccc2C)CC1 (racemic) [Ranolazine, (±)-N-(2,6-dimethylphenyl)-4-[2-hydroxy-3-(2-methoxyphenoxy)-propyl]-1-piperazineacetamide]
Association rate kon [2]: 8.2e+06 M⁻¹ s⁻¹ | Charge conducted during slow depolarizing voltage ramp (−40 to 0 mV, normalized to peak current) ([3]; 3 μM ranolazine, 20 mV/s ramp): reduced the charge conducted by R1648H to the level observed in cells expressing WT channels recorded in the absence of drug | Use-dependent block: loss of channel availability [3, 10]: exaggerated loss of availability at all frequencies greater than 22 Hz | Block of HERG [4]: blocks | Use-dependent block: channel availability by the 300th pulse ([6]; 30 μM ranolazine, WT-Nav1.1 and mutant channels, 10 Hz): significant loss of channel availability | Block of persistent current compared to peak current ([6]; 30 μM ranolazine, all mutants, tonic block): much greater degree of ranolazine block of persistent current as compared to peak current | Use-dependent reduction in channel availability compared to WT-Nav1.1 ([6]; 30 μM ranolazine, mutants R1648H, T875M and R1648C): significantly greater reduction in channel availability | Level of persistent current in presence of ranolazine versus WT-Nav1.1 without drug ([6]; 30 μM ranolazine, mutants R1648H, T875M, L263V): not significantly different from WT-Nav1.1 channels in the absence of drug | Greater inhibition of persistent current compared to tonic block of peak current [6, 14]: 16 fold | Greater inhibition of persistent current compared to use-dependent block of peak current [6, 14]: 5 fold | Usual therapeutic plasma concentration [7]: 2 to 10 µM | Use-dependent block: loss of channel availability [8, 10]: exaggerated loss of availability at all frequencies greater than 22 Hz | Use-dependent block: peak current during repetitive pulsing ([8]; 30 μM ranolazine, 5 ms, −10 mV, 300 pulses, 10 Hz): caused a reduction in peak current during repetitive pulsing | Tolerability [9]: well tolerated
